Measurements reported in paper PMC9169360, “Molecular Imaging-Derived Biomarker of Cardiac Nerve Integrity — Introducing High NET Affinity PET Probe ^18F-AF78” (Theranostics, 2022).
Like-named read-outs stand apart in the source and are kept apart here.

Experiments:
[1] = biological target: T1, norepinephrine transporter (NET) (Homo sapiens, UniProt P23975); assay: Competitive cell uptake assay against 3H-norepinephrine in SK-N-SH human neuroblastoma cells; type: cell-based
T1 construct: cells naturally expressing NET; host or cells: SK-N-SH human neuroblastoma cells
Excerpt: SK-N-SH (human neuroblastoma cell line) cells naturally expressing NET were cultivated according to the instructions from the supplier (Sigma-Aldrich Chemie GmbH, Taufkirchen, Germany). […] Cell lysates were collected and measured in a liquid scintillation analyzer.

[2] = parameters: method as in PMID 28322043; settings: rhesus macaque monkeys, not before 90 min after radiotracer injection; cited from earlier work
[3] = Dynamic PET imaging and biodistribution of the radiotracer in healthy nonhuman primates; type: in vivo, cynomolgus monkeys; settings: NHP controls
Description: (§1) Male Wistar rats (n = 4, weighing 250-400 g) and New Zealand white rabbits (n = 5, weighing 3.2-3.6 kg) were used for cardiac uptake studies. Anesthesia was induced and maintained during the experiment by 2% isoflurane. Large animal PET studies were performed on cynomolgus monkeys (n = 4, weighing 3.9-4.2 kg). Induction of anesthesia in NHPs was conducted by intramuscular injection of ketamine (1.5 mg/kg) and xylazine (0.6 mg/kg) to allow the preparation and handling of the animals. After a tracheal cannula was inserted, 1.5% sevoflurane (SEVOFLURANE Inhalation Solution, Pfizer Japan Inc., Tokyo, Japan) vaporized with 100% oxygen was inhaled, and the tidal volume and respiratory rate of the ventilator were monitored and kept in the normal range throughout the imaging sessions with an anesthesia workstation (Apollo®, Drägerwerk AG & Co. KGaA, Lübeck, Germany).
NHPs were maintained under anesthesia during imaging and were studied with a PET scanner (PCA-2000A, Toshiba Medical Systems Corporation, Tochigi, Japan). After a 5-min transmission scan and a bolus intravenous (i.v.) injection of the radiotracer ^18F-AF78 (approximately 20 MBq) via the saphenous vein, a 60-min dynamic PET scan (10 s × 12, 30 s × 6, and 300 s × 11) was initiated. For the blocking study, DMI was injected 10 min before radiotracer administration, after which the PET scan commenced immediately (n = 4). For the DMI chase study, DMI (1 mg/kg, n = 4) was injected 10 min after radiotracer administration, while the PET scan was initiated simultaneously with radiotracer administration. The catecholamine releasing stimulator tyramine (TYR) was also used in a chase protocol, with 50 µg/kg each injection (n = 4) injected intermittently (5 times, 10-min intervals) after radiotracer administration. The radiotracers ^18F-AF78 and ^123I-MIBG were formulated in saline for the animal studies. Control animals received normal saline. The inhibitors PhB, DMI and TYR were first dissolved in a minimum amount of DMSO and diluted with saline for administration with a final concentration of DMSO lower than 10%. The experimental timeline is provided in the supplementary material.
(§2) PET imaging for rats, rabbits and NHPs was performed from the chest to the upper abdomen, including the heart, lungs, liver and part of the intestines. The reconstructed images were analyzed using AMIDE imaging software (version 1.0.1). For kinetic studies in rats and NHPs, the tissue uptake was determined as standardized uptake values (SUVs), from which time-activity curves of different organs, e.g., heart, blood, lung and liver, were generated with transmission computed tomography images for topographic localization.

[4] = test system: norepinephrine transporter (NET); assay: PET kinetic studies in nonhuman primates with DMI blocking, DMI chase and tyramine chase; type: in vivo, cynomolgus monkeys; settings: NHP heart, 60 min
Description: as §1
NHPs were maintained under anesthesia during imaging and were studied with a PET scanner (PCA-2000A, Toshiba Medical Systems Corporation, Tochigi, Japan). After a 5-min transmission scan and a bolus intravenous (i.v.) injection of the radiotracer ^18F-AF78 (approximately 20 MBq) via the saphenous vein, a 60-min dynamic PET scan (10 s × 12, 30 s × 6, and 300 s × 11) was initiated. For the blocking study, DMI was injected 10 min before radiotracer administration, after which the PET scan commenced immediately (n = 4). For the DMI chase study, DMI (1 mg/kg, n = 4) was injected 10 min after radiotracer administration, while the PET scan was initiated simultaneously with radiotracer administration. […]
as §2

[5] = biological target: T2, norepinephrine transporter (NET) (Rattus norvegicus, UniProt Q63380); assay: PET imaging and biodistribution in rats with or without PhB blocking; type: in vivo, Wistar rats
T2 construct: from tissue; host or cells: heart of living Wistar rats (in vivo PET, ex vivo tissue counting)
Description: as §1
A small-animal PET system (microPET FOCUS 120, Siemens, Erlangen, Germany) was used for the rat studies. […] The organ-to-blood ratios were calculated following weight and decay correction of tissue counts.
PET imaging for rats, rabbits and NHPs was performed from the chest to the upper abdomen, including the heart, lungs, liver and part of the intestines. The reconstructed images were analyzed using AMIDE imaging software (version 1.0.1). […]

[6] = biological target: T3, norepinephrine transporter (NET) (Oryctolagus cuniculus, UniProt G1TDF9); assay: PET imaging and cardiac uptake in rabbits with or without DMI blocking; type: in vivo, New Zealand white rabbits; settings: DMI 1.5 mg/kg 10 min before tracer, SUV, n = 5
T3 construct: from tissue; host or cells: heart of living New Zealand white rabbits (in vivo PET, gamma counting)
Description: as §1
^18F-AF78 (3-4 MBq) and ^123I-MIBG (approximately 2.5 MBq) were injected into rabbits maintained under anesthesia via the marginal ear vein in a single dose. The NET blocker DMI (1.5 mg/kg) was injected 10 min before radiotracer administration in the blocking study. A 10-min dynamic scan was initiated immediately after the radiotracer injection. The animals were euthanized immediately after the scan, and the organs of interest were harvested and measured in a gamma counter to calculate biodistribution. […]

[7] = SK-N-SH cells, 60 min, 37 °C, mean ± SD, n = 4, read-out: IC50, competitive cell uptake affinity against 3H-NE

T1 sequence (P23975 whole entry): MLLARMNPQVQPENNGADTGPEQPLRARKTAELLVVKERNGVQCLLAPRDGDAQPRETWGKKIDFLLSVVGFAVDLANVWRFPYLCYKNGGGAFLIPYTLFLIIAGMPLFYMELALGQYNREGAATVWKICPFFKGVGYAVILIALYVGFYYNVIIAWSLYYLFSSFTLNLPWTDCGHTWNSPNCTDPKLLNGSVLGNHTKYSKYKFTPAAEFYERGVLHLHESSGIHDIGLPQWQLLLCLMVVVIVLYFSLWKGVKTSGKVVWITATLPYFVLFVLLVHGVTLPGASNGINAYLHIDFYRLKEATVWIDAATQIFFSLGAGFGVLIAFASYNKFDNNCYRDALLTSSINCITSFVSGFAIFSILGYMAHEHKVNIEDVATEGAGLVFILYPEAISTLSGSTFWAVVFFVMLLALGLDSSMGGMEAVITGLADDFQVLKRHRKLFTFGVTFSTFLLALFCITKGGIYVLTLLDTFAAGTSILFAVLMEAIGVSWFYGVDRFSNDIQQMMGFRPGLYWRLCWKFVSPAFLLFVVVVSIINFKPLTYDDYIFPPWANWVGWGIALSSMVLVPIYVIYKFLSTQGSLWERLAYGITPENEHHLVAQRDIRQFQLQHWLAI
T3 sequence (G1TDF9 1-617): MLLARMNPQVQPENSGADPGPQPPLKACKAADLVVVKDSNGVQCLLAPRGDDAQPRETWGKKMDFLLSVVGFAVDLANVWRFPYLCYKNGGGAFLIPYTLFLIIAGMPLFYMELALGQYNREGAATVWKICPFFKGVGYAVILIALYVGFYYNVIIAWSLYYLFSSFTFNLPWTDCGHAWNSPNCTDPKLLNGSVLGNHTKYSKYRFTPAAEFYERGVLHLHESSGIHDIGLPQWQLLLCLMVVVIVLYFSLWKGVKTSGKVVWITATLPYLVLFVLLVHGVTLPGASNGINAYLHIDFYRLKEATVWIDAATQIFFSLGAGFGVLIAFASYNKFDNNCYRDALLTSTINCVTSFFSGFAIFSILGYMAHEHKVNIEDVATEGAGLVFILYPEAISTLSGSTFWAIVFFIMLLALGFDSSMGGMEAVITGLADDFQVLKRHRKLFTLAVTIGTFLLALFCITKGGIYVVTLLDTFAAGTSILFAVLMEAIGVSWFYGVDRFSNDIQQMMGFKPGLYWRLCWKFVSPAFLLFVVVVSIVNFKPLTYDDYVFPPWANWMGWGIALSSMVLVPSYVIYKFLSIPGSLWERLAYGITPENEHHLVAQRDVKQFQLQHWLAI
T2 sequence (Q63380 1-617): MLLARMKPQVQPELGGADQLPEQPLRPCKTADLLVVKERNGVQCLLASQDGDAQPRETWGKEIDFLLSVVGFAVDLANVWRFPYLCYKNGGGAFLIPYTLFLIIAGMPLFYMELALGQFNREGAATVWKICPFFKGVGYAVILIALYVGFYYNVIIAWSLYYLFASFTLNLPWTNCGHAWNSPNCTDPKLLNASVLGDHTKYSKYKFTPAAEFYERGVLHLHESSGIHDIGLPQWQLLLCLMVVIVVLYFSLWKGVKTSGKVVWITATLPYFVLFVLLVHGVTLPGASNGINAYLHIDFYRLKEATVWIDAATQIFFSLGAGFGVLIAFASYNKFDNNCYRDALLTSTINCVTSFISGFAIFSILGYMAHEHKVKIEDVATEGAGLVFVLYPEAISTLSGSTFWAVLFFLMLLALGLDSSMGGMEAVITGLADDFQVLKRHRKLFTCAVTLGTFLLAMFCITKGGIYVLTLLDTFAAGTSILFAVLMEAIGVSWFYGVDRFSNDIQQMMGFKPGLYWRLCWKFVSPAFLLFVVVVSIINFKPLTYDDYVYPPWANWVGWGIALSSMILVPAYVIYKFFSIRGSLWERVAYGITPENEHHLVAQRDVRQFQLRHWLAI

## N=C(N)NCCc1ccc(O)c(F)c1 [3F-PHPG, 3-fluoro-4-hydroxyphenethylguanidine]
[1]; [7]
  IC50: 780 ± 60 nM
[2]
  heart-to-liver ratio: 2.5 ± 0.3

## N=C(N)NCCc1ccc(F)c(O)c1 [4F-MHPG, 4-fluoro-3-hydroxyphenethylguanidine]
[1]; [7]
  IC50: 2780 ± 1220 nM
[2]
  heart-to-liver ratio: 2.2 ± 0.8

## NCCc1cc(O)c(O)cc1F [6F-DA, 6-fluorodopamine]
[1]
  IC50: 1200 ± 330 nM

## N=C(N)NCCc1ccc(OCCCF)c(F)c1 [AF78, 1-(3-fluoro-4-(3-fluoropropoxy)phenethyl)guanidine]
[1]; [7]
  IC50: 420 ± 140 nM
[1]; ratio of IC50 values, SK-N-SH cells
  fold higher affinity of AF78 relative to MIBG: 4.2 fold
[3]; 5 min postinjection
  heart-to-blood pool ratio: 2.03 ± 0.53
  heart-to-liver ratio: 0.38 ± 0.29
[3]; 30 min postinjection
  heart-to-liver ratio: 0.95 ± 0.20
[3]; 60 min postinjection
  absolute SUV in the blood pool: 0.72 ± 0.34 SUV
  absolute SUV in the liver: 0.91 ± 0.47 SUV
  heart-to-blood pool ratio: 1.82 ± 0.71
  heart-to-liver ratio: 1.60 ± 0.38
[3]; heart, 5 min postinjection
  cardiac SUV: 1.74 ± 0.24 SUV
[3]; heart, 60 min postinjection
  cardiac uptake, mean SUV: 1.46 ± 0.18 SUV
[4]; DMI 1 mg/kg 10 min after tracer
  cardiac mean SUV after DMI chase: 1.40 ± 0.07 SUV
[4]; DMI injected 10 min before tracer
  cardiac mean SUV after DMI blocking: 0.45 ± 0.05 SUV
[4]; tyramine 50 µg/kg 5 times at 10-min intervals
  cardiac mean SUV after intermittent TYR chase: 0.92 ± 0.20 SUV
[5]; PhB 50 mg/kg 10 min before tracer, time-activity curves
  cardiac uptake upon PhB pretreatment: decreased rapidly
[5]; biodistribution study, controls
  organ-to-blood ratios, early (10 min) versus late (60 min) phase: unchanged
[6]
  cardiac uptake in the DMI pretreatment group: reduced significantly

## N=C(N)NCc1ccc(OCCCF)c(Br)c1 [FBBG, flubrobenguane]
[1]; [7]
  IC50: 2280 ± 1050 nM

## CN[C@@H](C)[C@H](O)c1cccc(O)c1 [HED, metahydroxyephedrine]
[1]
  IC50: 390 ± 110 nM

## N=C(N)NCc1cccc(I)c1 [MIBG, metaiodobenzylguanidine, reference compound]
[1]; [7]
  IC50: 1750 ± 470 nM
[6]
  cardiac uptake in the DMI pretreatment group: reduced significantly
